Measured values from PubChem BioAssay AID248 (DTP/NCI, 2004).
Inconclusive results and toxic doses are left out. No stated cut-off is given here; in the data, active means T/C of 150% or more; inactive means T/C below 125%.

Test system: L1210 leukemia ip in BDF1 mice, survival T/C
Experiment: NCI In Vivo Anticancer Drug Screen. Data for tumor model L1210 Leukemia (intraperitoneal) in B6D2F1 (BDF1) mice
Details: endpoint: mean survival time, higher = longer survival
In short: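 Tumor cells were implanted, animals were treated, and survival was followed. The result divides the treated measurement by the vehicle-control measurement.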

[1] = dose: 100.0 mg/kg/injection, schedule: Q01DX001 (ip), vehicle: saline
[2] = dose: 200.0 mg/kg/injection, schedule: Q01DX001 (ip), vehicle: saline
[3] = dose: 400.0 mg/kg/injection, schedule: Q01DX001 (ip), vehicle: saline

Measured: T/C

CC(C)(C)N1OC2(CCCCC2)n2c(=O)c3ccccc3c(=O)n2C1c1ccccc1 (stereo not given)
inactive: dose: 100.0 mg/kg/injection, schedule: Q04DX002 (ip), vehicle: saline with Tween-80 97 % of control | dose: 200.0 mg/kg/injection, schedule: Q04DX002 (ip), vehicle: saline with Tween-80 90 % of control | dose: 400.0 mg/kg/injection, schedule: Q04DX002 (ip), vehicle: saline with Tween-80 108 % of control

O=C(Nc1cccc2ccccc12)C(F)(F)F
inactive: [1] 93 % of control | dose: 100.0 mg/kg/injection, schedule: Q01DX009 (ip), vehicle: saline with Tween-80 98 % of control | dose: 100.0 mg/kg/injection, schedule: Q04DX003 (ip), vehicle: saline with Tween-80 90 % of control | dose: 200.0 mg/kg/injection, schedule: Q01DX009 (ip), vehicle: saline with Tween-80 104 % of control | dose: 200.0 mg/kg/injection, schedule: Q04DX003 (ip), vehicle: saline with Tween-80 95 % of control | dose: 400.0 mg/kg/injection, schedule: Q01DX009 (ip), vehicle: saline with Tween-80 98 % of control | dose: 400.0 mg/kg/injection, schedule: Q04DX003 (ip), vehicle: saline with Tween-80 93 % of control

CCCCCCCCCc1cc(=O)n(-c2ccc(C(=O)OCC)cc2)n1C
inactive: dose: 12.5 mg/kg/injection, schedule: Q04DX003 (ip), vehicle: Klucel (hydroxypropylcellulose) (HPC) 105 % of control | dose: 25.0 mg/kg/injection, schedule: Q04DX003 (ip), vehicle: Klucel (hydroxypropylcellulose) (HPC) 102 % of control | dose: 50.0 mg/kg/injection, schedule: Q04DX003 (ip), vehicle: Klucel (hydroxypropylcellulose) (HPC) 97 % of control

O=C(O)C(F)(F)C(F)(F)C(F)(F)F
inactive: [1] 105 % of control | [2] 103 % of control | [3] 92 % of control

Cc1[nH]c(=O)[nH]c(=O)c1/C=C/C(=O)O
inactive: [1] 97 % of control | dose: 100.0 mg/kg/injection, schedule: Q01DX009 (ip), vehicle: saline 108 % of control | [2] 100 % of control | dose: 200.0 mg/kg/injection, schedule: Q01DX009 (ip), vehicle: saline 102 % of control | [3] 97 % of control | dose: 400.0 mg/kg/injection, schedule: Q01DX009 (ip), vehicle: saline 106 % of control

O=C(NCCSSCCNC(=O)c1ccccc1)c1ccccc1
inactive: [1] 92 % of control | [2] 96 % of control | [3] 100 % of control
